Data reported in patent US6635293B2, “Finely dispersed carotenoid suspensions for use in foods and a process for their preparation” (Kemin Foods, L.C., priority 2001, dated 2003).

Tests used:
[1] = Stability against ringing and settling of SFAE/carotenoid compositions in model beverage system; assay type: physicochemical; conditions: 3 mg carotenoid/8 fl. oz. serving, 20% SFAE/1% lycopene
From the text: The objective of this experiment was to determine the stability of a sucrose fatty acid ester/carotenoid suspension in aqueous compositions. For the purposes of this discussion, stability will be defined as the resistance to produce a deposit of the carotenoid around the perimeter of the container in the region of the surface of the beverage (ringing). There are several factors that may affect the stability against ringing in aqueous compositions. It is possible that an optimal level of SFAE is required to keep the carotenoid in the suspension. The hydrophilic/lipophilic balance (HLB) of the SFAE may affect the interaction of the carotenoids with the aqueous composition. Additionally, the inclusion level of the SFAE/carotenoid suspension may determine the stability against ringing. […] These factors have been examined to determine whether there are optimal levels of SFAE and carotenoids that contribute to the stability against ringing. Stability against ringing was examined using SFAE/carotenoid liquid compositions in potable water and a model beverage system. The SFAE/carotenoid dry composition was used in a model beverage system. Liquid SFAE/carotenoid compositions were made by slowly mixing the appropriate weight percent of SFAE into the water until dissolved (Table 6). At this point the carotenoid was mixed into the SFAE/water mixture until evenly dispersed. […]

[2] = Optical clarity of water containing SFAE/carotenoid composition (% transmittance at 800 nm); assay type: physicochemical; conditions: liquid conc. product 20% L-1695 ester
Protocol: (§1) Optical clarity was examined using SFAE/carotenoid liquid compositions in potable water and a model beverage system. The SFAE/carotenoid dry composition are used in a model beverage system. Liquid SFAE/carotenoid compositions were made by slowly mixing the appropriate weight percent of SFAE into the water until dissolved (Tables 2-5). At this point, the carotenoid was mixed into the SFAE/water mixture until evenly dispersed. The dry SFAE/lutein composition was prepared by removing the water from the liquid SFAE/lutein composition using a horizontal wiped film evaporator until the total moisture was less than 1%. These SFAE/carotenoid compositions were added either to potable water or to the model beverage system. The optical clarity was measured using a Hewlett Packard UV-Visible Spectrophotometer Model 8453. The instrument was blanked with water for the water trial and control beverage for the beverage trials. A quartz cuvette having a 1 cm path length is rinsed three times with the sample and then the transmittance at 800 nm is read from the spectrophotometer.

[3] = Optical clarity of model beverage system containing SFAE/carotenoid composition (% transmittance at 800 nm); assay type: physicochemical; conditions: liquid conc. product 20% L-1695 ester
Protocol: as §1

[4] = test system: age-related macular degeneration; conditions: consumption of lutein and zeaxanthin together; cited from earlier work
[5] = 0.5 mg carotenoid/8 oz serving, 1% carotenoid
[6] = 3.0 mg carotenoid/8 oz serving, 1% carotenoid
[7] = 0.5 mg carotenoid/8 oz serving, 5% carotenoid
[8] = 1.5 mg carotenoid/8 oz serving, 5% carotenoid
[9] = 3.0 mg carotenoid/8 oz serving, 5% carotenoid

| settling (in words) [1] | Optical Clarity [2, 5] | Optical Clarity ([2]; 1.5 mg carotenoid/8 oz serving, 1% carotenoid) | Optical Clarity [2, 6] | Optical Clarity [3, 5] | Optical Clarity [3, 6] | Optical Clarity [2, 7] | Optical Clarity [2, 8] | Optical Clarity [2, 9] | Optical Clarity [3, 7] | Optical Clarity [3, 9] | Compound | reduction in age-related macular degeneration [4] |
| --- | --- | --- | --- | --- | --- | --- | --- | --- | --- | --- | --- | --- |
| considerable amount of settling | 97.989 % transmittance at 800 nm | 88.387 % transmittance at 800 nm | 72.401 % transmittance at 800 nm | 94.934 % transmittance at 800 nm | 50.180 % transmittance at 800 nm |  |  |  |  |  | CC(C)=CCC/C(C)=C/C=C/C(C)=C/C=C/C(C)=C/C=C/C=C(C)/C=C/C=C(C)/C=C/C=C(\C)CCC=C(C)C [lycopene, Lycopene] |  |
|  |  |  |  |  |  | 96.759 % transmittance at 800 nm | 94.275 % transmittance at 800 nm | 87.407 % transmittance at 800 nm | 99.314 % transmittance at 800 nm | 89.643 % transmittance at 800 nm | CC1=C(/C=C/C(C)=C/C=C/C(C)=C/C=C/C=C(C)/C=C/C=C(C)/C=C/C2=C(C)CCCC2(C)C)C(C)(C)CCC1 [β-carotene, β-Carotene] |  |
|  |  |  |  |  |  | 98.213 % transmittance at 800 nm | 95.692 % transmittance at 800 nm | 94.110 % transmittance at 800 nm | 99.102 % transmittance at 800 nm | 87.707 % transmittance at 800 nm | CC1=C(/C=C/C(C)=C/C=C/C(C)=C/C=C/C=C(C)/C=C/C=C(C)/C=C/C2=C(C)C[C@@H](O)CC2(C)C)C(C)(C)C[C@H](O)C1 [zeaxanthin, Zeaxanthin] | 57% |
|  |  |  |  |  |  | 104.73 % transmittance at 800 nm | 101.01 % transmittance at 800 nm | 93.735 % transmittance at 800 nm | 97.609 % transmittance at 800 nm | 83.017 % transmittance at 800 nm | CC1=C[C@H](O)CC(C)(C)[C@H]1/C=C/C(C)=C/C=C/C(C)=C/C=C/C=C(C)/C=C/C=C(C)/C=C/C1=C(C)C[C@@H](O)CC1(C)C [lutein, Lutein] | 57% |
